How the values were obtained:
[1] = molecular target: hRXRalpha (Homo sapiens, UniProt P19793); assay: hRXRalpha binding
[2] = molecular target: WT GPR40 (Homo sapiens, UniProt O14842); assay: cAMP accumulation assay (CRE/luc2P), wild type GPR40
Protocol: HEK293 cells transiently transfected with Promega’s cAMP response element (CRE/luc2P) and a GPR40 construct were plated (40K cells/well) into 96-well microtiter plates using Dulbecco’s Modified Eagle’s Medium (DMEM) supplemented with 10% FBS, 20 mM HEPES, pH 7.4, 100 U/mL Penicillin, 100 µg/mL Streptomycin, and 800 µg/mL Geneticin. Test compounds were serially diluted three-fold in 100% DMSO and immediately diluted in media. […] EC50 values were calculated using a four-parameter logistic curve fitting equation.

[3] = molecular target: hCDK2 (Homo sapiens, UniProt P24941); assay: hCDK2 binding
[4] = molecular target: T1, human GPR40 (Homo sapiens, UniProt O14842); assay: Human GPR40 b-arrestin; type: cell-based
T1 construct: HEK293 cells stably overexpressing full length human GPR40; expressed in transfected cells
T1 sequence (O14842 whole entry): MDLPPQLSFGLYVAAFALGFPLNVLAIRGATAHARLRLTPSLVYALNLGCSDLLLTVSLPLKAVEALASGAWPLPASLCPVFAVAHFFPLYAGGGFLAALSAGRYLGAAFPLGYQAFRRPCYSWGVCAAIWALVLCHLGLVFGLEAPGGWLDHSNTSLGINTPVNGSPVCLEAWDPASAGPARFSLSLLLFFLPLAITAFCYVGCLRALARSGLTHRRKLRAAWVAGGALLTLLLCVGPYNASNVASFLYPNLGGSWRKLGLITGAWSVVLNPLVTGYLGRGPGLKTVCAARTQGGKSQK

[5] = Human hepatocyte clearance; type: in vitro ADME; details: hepatocytes
[6] = test system: GPR40 knock-out (KO) mice; assay: IPGTT in GPR40 knock-out mice; type: in vivo, mouse; details: high dose of compound 1
Protocol: Nine to ten week old male ICR mice (Envigo) and GPR40 KO mice (Taconic) were used. The day before an IPGTT (~1600), animals were fasted in clean cages. The following morning (~0800), animals were randomized on fasting glucose and body weight (N = 6 per group). Mice were orally administered a test article or vehicle 60 min prior to an intraperitoneal (IP) injection of glucose (2g/kg). Blood glucose levels were determined by a glucometer from tail bleeds taken at 0, 15, 30, 60, and 120 min after the glucose challenge. An average of two readings were reported at each time point. Also, blood samples were collected into serum tubes at 0, 3, 6, and 15 min post glucose injection for insulin measurement. Serum tubes were centrifuged at 3000g for 5 min and serum transferred into 96-well plates for insulin analysis by a Mesoscale rat/mouse insulin assay.

[7] = Mouse hepatocyte clearance; type: in vitro ADME; details: hepatocytes
[8] = molecular target: hM1 (Homo sapiens, UniProt P11229); assay: hM1 binding; details: read-out: hM1 binding Rel IC50
Sequence of hM1 (P11229 whole entry): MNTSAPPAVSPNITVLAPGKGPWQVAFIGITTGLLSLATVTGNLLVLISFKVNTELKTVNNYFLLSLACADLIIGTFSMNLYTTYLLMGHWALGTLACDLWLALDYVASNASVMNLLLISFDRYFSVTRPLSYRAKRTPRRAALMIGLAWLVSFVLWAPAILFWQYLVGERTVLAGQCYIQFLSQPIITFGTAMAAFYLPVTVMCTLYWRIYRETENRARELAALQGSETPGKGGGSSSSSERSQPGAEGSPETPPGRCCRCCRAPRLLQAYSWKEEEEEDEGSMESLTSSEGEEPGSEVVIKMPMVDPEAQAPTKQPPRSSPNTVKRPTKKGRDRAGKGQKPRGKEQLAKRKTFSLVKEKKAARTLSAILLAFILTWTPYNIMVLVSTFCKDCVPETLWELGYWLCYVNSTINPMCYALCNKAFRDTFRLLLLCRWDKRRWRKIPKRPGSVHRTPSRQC

[9] = Dog hepatocyte clearance; type: in vitro ADME; details: hepatocytes

Sequence of WT GPR40 (O14842 whole entry): as the sequence (O14842 whole entry) above
Sequence of hRXRalpha (P19793 whole entry): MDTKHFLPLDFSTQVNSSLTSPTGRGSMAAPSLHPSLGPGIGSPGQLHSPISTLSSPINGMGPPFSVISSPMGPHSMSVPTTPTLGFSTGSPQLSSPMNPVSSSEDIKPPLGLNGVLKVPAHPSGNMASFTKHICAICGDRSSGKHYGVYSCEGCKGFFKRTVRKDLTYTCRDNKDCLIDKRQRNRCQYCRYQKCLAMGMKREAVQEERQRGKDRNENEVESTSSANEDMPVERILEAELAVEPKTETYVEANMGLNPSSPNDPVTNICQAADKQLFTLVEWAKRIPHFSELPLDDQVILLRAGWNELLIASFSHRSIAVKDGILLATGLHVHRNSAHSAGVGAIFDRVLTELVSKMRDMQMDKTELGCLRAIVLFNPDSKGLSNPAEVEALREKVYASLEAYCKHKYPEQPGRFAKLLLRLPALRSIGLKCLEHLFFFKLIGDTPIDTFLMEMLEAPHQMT

## COc1ccc(C(=O)N(CC(C)(C)C)c2cccc(C)n2)c(N2CCC(c3cc4ccc([C@@H](CC(=O)O)C5CC5)cc4o3)CC2)c1 [compound 1]
[1]
  Ki: > 10 µM
[2]; cAMP accumulation EC50, GPR40-Gαs signaling, stably transfected cells, Fig. 1c, n = 6
  EC50: ~0.126 µM
[2]; cAMP accumulation EC50, WT, Fig. 6c-e, n = 3
  EC50: 0.21 µM
[3]
  IC50: > 20 µM
[4]
  EC50: 0.0019 µM
  Emax: 172%
[5]; no ABT, read-out: Human Hepatocyte Clearance no ABT % Recovery
  recovery: 103%
[5]; no ABT, read-out: Human Hepatocyte Clearance no ABT Intrinsic Clearance
  hepatocyte CLint: 8.8 µL/min/1e6 cells
[5]; with ABT (concentration not stated), read-out: Human Hepatocyte Clearance ABT % Recovery
  recovery: 92.8%
[5]; with ABT, read-out: Human Hepatocyte Clearance ABT Intrinsic Clearance
  hepatocyte CLint: < 1.8 µL/min/1e6 cells
[6]
  glucose lowering in IPGTT, GPR40 KO: not observed
  insulin secretion in IPGTT, GPR40 KO: not observed
[7]; no ABT, read-out: Mouse Hepatocyte Clearance no ABT % Recovery
  recovery: 103%
[7]; no ABT, read-out: Mouse Hepatocyte Clearance no ABT Intrinsic Clearance
  hepatocyte CLint: 9.2 µL/min/1e6 cells
[7]; with ABT (concentration not stated), read-out: Mouse Hepatocyte Clearance ABT % Recovery
  recovery: 92.8%
[7]; with ABT, read-out: Mouse Hepatocyte Clearance ABT Intrinsic Clearance
  hepatocyte CLint: 12.4 µL/min/1e6 cells
[8]
  IC50: > 10 µM
[9]; no ABT, read-out: Dog Hepatocyte Clearance no ABT % Recovery
  recovery: 103%
[9]; no ABT, read-out: Dog Hepatocyte Clearance no ABT Intrinsic Clearance
  hepatocyte CLint: 31.4 µL/min/1e6 cells
[9]; with ABT (concentration not stated), read-out: Dog Hepatocyte Clearance ABT % Recovery
  recovery: 92.8%
[9]; with ABT, read-out: Dog Hepatocyte Clearance ABT Intrinsic Clearance
  hepatocyte CLint: 19.3 µL/min/1e6 cells

Source: paper PMC5917010, “Structural basis for GPR40 allosteric agonism and incretin stimulation” (Nature Communications, 2018)
